Data from US20260240154A1, “GLOBODERA PALLIDA CONTROL AGENT” (National Agriculture and Food Research Organization, priority 2021, published 2026).

system: Globodera pallida eggs; assay: Hatching accelerating effect evaluation test for Globodera pallida (liquid immersion test); type: in vivo; settings: 1 mL of 2 ppm test reagent solution added to 1 mL egg suspension; 16° C.; about 2 weeks; two replicates
Description: A predetermined amount of compound (I) was dissolved in an aqueous solution containing 0.05% (v/v) of polyoxyethylene sorbitan monolaurate (Tween20) to prepare a 100 ppm solution of compound (I).
The 100 ppm solution of compound (I) was further diluted with a 0.05% (v/v) Tween20 aqueous solution to prepare a test reagent solution with a concentration of compound (I) of 2 ppm.
The cysts of Globodera pallida increased in a greenhouse before the previous year were isolated from the soil, immersed in distilled water and kept at 16° C. for about 2 weeks were crushed with a scalpel and the eggs were taken out to obtain an egg suspension. After preparing a density of approximately 600 eggs per mL, Tween 20 was added to a concentration of 0.05% (v/v). 1 mL of this egg suspension was put into a 13.5 mL screw cap glass vial (inner diameter: 2.1 cm, height: 4.8 cm), and 1 mL each of a test reagent solution with a concentration of compound (I) of 2 ppm was added. It was covered and kept at 16° C.
About 2 weeks later, 1 mL was taken out, and the number of hatching larvae and the number of eggs were counted under a stereomicroscope. Two replicates were installed for each compound, and the average hatching rate was calculated.

First: CC1(C)NC(=O)[C@H]2C[C@]21c1ccccc1 (stereo in doubt) [Compound C-1, 4,4-dimethyl-5-phenyl-3-azabicyclo[3.1.0]hexan-2-one]
Second: CC1(C)NC(=O)CC1c1ccccc1 (stereo not drawn) [Compound 1, 5,5-dimethyl-4-phenyl-2-pyrrolidinone]
The “Average hatching rate (%)” value of the first is higher: 94.0% for the first, 83.0% for the second.

First: COc1ccc(C2CC(=O)NC2(C)C)cc1 (stereo not drawn) [Compound 6, 5,5-dimethyl-4-(4-methoxyphenyl)-2-pyrrolidinone]
Second: CC1(C)NC(=O)CC1c1ccc(F)cc1 (stereo not drawn) [Compound 8, 5,5-dimethyl-4-(4-fluorophenyl)-2-pyrrolidinone]
The “Average hatching rate (%)” value of the first is lower: 38.0% for the first, 94.1% for the second.

Compared with `CC1(C)NC(=O)CC1c1ccc(C(F)(F)F)cc1` (stereo not drawn) [Compound 7, 5,5-dimethyl-4-(4-trifluoromethylphenyl)-2-pyrrolidinone], `CC1(C)NC(=O)CCC1c1ccc(Br)cc1` (stereo not drawn) [Compound A-2] is higher in “Average hatching rate (%)” value: 86.6% for the first, 97.4% for the second.

First: Cc1cccc(C2CC(=O)NC2(C)C)c1 (stereo not drawn) [Compound 9, 5,5-dimethyl-4-(3-methylphenyl)-2-pyrrolidinone]
Second: Cc1ccc(C2CC(=O)NC2(C)C)c(C)c1 (stereo not drawn) [Compound 14, 5,5-dimethyl-4-(2,4-dimethyl-phenyl)-2-pyrrolidinone]
The “Average hatching rate (%)” value of the first is higher: 72.3% for the first, 37.6% for the second.

Going from `Cc1ccccc1C1CC(=O)NC1(C)C` (stereo not drawn) [Compound 10, 5,5-dimethyl-4-(2-methylphenyl)-2-pyrrolidinone] to `Cc1ccc(C)c(C2CC(=O)NC2(C)C)c1` (stereo not drawn) [Compound 11, 5,5-dimethyl-4-(2,5-dimethyl-phenyl)-2-pyrrolidinone], the “Average hatching rate (%)” value rises from 69.2% to 72.9%.

Compared with `CC1(C)NC(=O)CC1c1cc(F)c(F)c(F)c1` (stereo not drawn) [Compound 13, 5,5-dimethyl-4-(3,4,5-trifluoro-phenyl)-2-pyrrolidinone], `CC1(C)NC(=O)CCC1c1ccccc1` (stereo not drawn) [Compound A-1] is higher in “Average hatching rate (%)” value: 62.6% for the first, 77.4% for the second.

Going from `CC1C(=O)NC(C)(C)C1c1ccccc1` (stereo not drawn) [Compound 15, 3,5,5-trimethyl-4-phenyl-2-pyrrolidinone] to `CC1(C)NC(=S)CC1c1ccccc1` (stereo not drawn) [Compound 16, 5,5-dimethyl-4-phenyl pyrrolidine-2-thione], the “Average hatching rate (%)” value falls from 77.3% to 69.2%.

Going from `CC1(C)OC(=O)CC1c1ccccc1` (stereo not drawn) [Compound 17, 5,5-dimethyl-4-phenyldihydrofuran-2(3H)-one] to `CC1(C)OC(=S)CC1c1ccccc1` (stereo not drawn) [Compound B-1], the “Average hatching rate (%)” value rises from 58.6% to 70.4%.

Going from `CC1(C)OC(=O)CC1c1ccc(F)cc1` (stereo not drawn) [Compound 19, 4-(4-fluorophenyl)-5,5-dimethyldihydrofuran-2(3H)-one] to `CCc1ccc(C2CC(=O)OC2(C)C)cc1` [Compound D-5], the “Average hatching rate (%)” value falls from 84.6% to 56.6%.

First: Cc1ccccc1C1CC(=O)OC1(C)C (stereo not drawn) [Compound 20, 5,5-dimethyl-4-(o-tolyl)dihydrofuran-2(3H)-one]
Second: Cc1cccc(C2CC(=O)OC2(C)C)c1C [Compound D-1]
The “Average hatching rate (%)” value of the first is lower: 63.1% for the first, 65.6% for the second.

Going from `CC1(C)CC(=O)CC1c1ccccc1` (stereo not drawn) [Compound 21, 3,3-dimethyl-4-phenyl-cyclopentanone] to `CC1(C)SC(=O)CC1c1ccccc1` (stereo not drawn) [Compound B-4], the “Average hatching rate (%)” value rises from 76.6% to 96.3%.

Compared with `COC(=O)c1ccc(C2CCC(=O)NC2(C)C)cc1` (stereo not drawn) [Compound A-4], `Cc1ccc(C2CCC(=O)SC2(C)C)cc1` (stereo not drawn) [Compound A-7] is higher in “Average hatching rate (%)” value: 68.8% for the first, 93.9% for the second.

Going from `CC1(C)SC(=O)CCC1c1ccccc1` (stereo not drawn) [Compound A-5] to `CC1(C)SC(=O)CCC1c1ccc(Cl)cc1` (stereo not drawn) [Compound A-6, 5-(4-chlorophenyl)-6,6-dimethyl tetrahydro-2H-thiopyran-2-one], the “Average hatching rate (%)” value rises from 92.6% to 93.6%.

Compared with `Cc1ccc(C2CC(=S)OC2(C)C)cc1` (stereo not drawn) [Compound B-2, 5,5-dimethyl-4-(p-tolyl)dihydrofuran-2 (3H)-thione], `Cc1ccc(C)c(C2CC(=S)OC2(C)C)c1` (stereo not drawn) [Compound B-3] is lower in “Average hatching rate (%)” value: 86.6% for the first, 21.2% for the second.

Going from `CC1(C)SC(=O)CC1c1ccc(Br)cc1` (stereo not drawn) [Compound B-5] to `Cc1ccc(C2CC(=O)SC2(C)C)cc1` (stereo not drawn) [Compound B-6, 5,5-dimethyl-4-(p-tolyl)dihydrothiophene-2 (3H)-one], the “Average hatching rate (%)” value rises from 96.9% to 97.1%.

First: CC1(C)SC(=O)CC1c1ccc(Cl)cc1 (stereo not drawn) [Compound B-7]
Second: CC1(C)NS(=O)(=O)CC1c1ccc(Cl)cc1 (stereo not drawn) [Compound B-12, 4-(4-chlorophenyl)-3,3-dimethylisothiazolidine-1,1-dioxide]
The “Average hatching rate (%)” value of the first is higher: 96.6% for the first, 93.0% for the second.

Compared with `Cc1ccc(C)c(C2CC(=O)SC2(C)C)c1` (stereo not drawn) [Compound B-8], `Cc1ccc(C2CC(=O)OC2(C)C)c(C)c1` [Compound D-2] is higher in “Average hatching rate (%)” value: 51.2% for the first, 94.7% for the second.

Going from `CC1(C)NS(=O)(=O)CC1c1ccccc1` (stereo not drawn) [Compound B-9] to `CC1(C)NS(=O)(=O)CC1c1ccc(Br)cc1` (stereo not drawn) [Compound B-10], the “Average hatching rate (%)” value rises from 69.5% to 82.7%.

Compared with `Cc1ccc(C2CS(=O)(=O)NC2(C)C)cc1` (stereo not drawn) [Compound B-11], `CC(C)(C)c1ccc(C2CC(=O)OC2(C)C)cc1` [Compound D-6] is lower in “Average hatching rate (%)” value: 80.2% for the first, 67.5% for the second.

Compared with `Cc1ccc(C2CC(=O)OC2(C)C)cc1C` [Compound D-3], `Cc1cc(C)cc(C2CC(=O)OC2(C)C)c1` [Compound D-4] is lower in “Average hatching rate (%)” value: 58.8% for the first, 40.1% for the second.

same assay, conditions: 1 ppm; optically active compounds

First: CC1(C)NC(=O)CC1c1ccccc1 (single isomer, unassigned) [1 (−), 5,5-dimethyl-4-phenyl-2-pyrrolidinone]
Second: CC1(C)NC(=O)CC1c1ccc(Cl)cc1 (single isomer, unassigned) [3 (−), 5,5-dimethyl-4-(4-chlorophenyl)-2-pyrrolidinone]
The “Average hatching rate at 1 ppm (%)” value of the first is lower: 87.7% for the first, 92.0% for the second.

Compared with `CC1(C)NS(=O)(=O)CC1c1ccc(Cl)cc1` (single isomer, unassigned) [B-12 (−), 4-(4-chlorophenyl)-3,3-dimethylisothiazolidine-1,1-dioxide], `CC1(C)NC(=O)CC1c1ccc(Cl)cc1` (single isomer, unassigned; (+)) [3 (+), (+)-5,5-dimethyl-4-(4-chlorophenyl)-2-pyrrolidinone] is lower in “Average hatching rate at 1 ppm (%)” value: 94.6% for the first, 93.2% for the second.

Going from `CC1(C)NC(=O)CC1c1ccccc1` (single isomer, unassigned; (+)) [1 (+), (+)-5,5-dimethyl-4-phenyl-2-pyrrolidinone] to `Cc1ccc(C2CC(=O)NC2(C)C)cc1` (single isomer, unassigned; (+)) [2 (+), (+)-5,5-dimethyl-4-(4-methylphenyl)-2-pyrrolidinone], the “Average hatching rate at 1 ppm (%)” value rises from 37.8% to 63.6%.

Compared with `CC1(C)NS(=O)(=O)CC1c1ccc(Cl)cc1` (single isomer, unassigned; (+)) [B-12 (+), (+)-4-(4-chlorophenyl)-3,3-dimethylisothiazolidine-1,1-dioxide], `Cc1ccc(C2CC(=O)NC2(C)C)cc1` (single isomer, unassigned; (-)) [Compound 2 (−), (−)-5,5-dimethyl-4-(4-methylphenyl)-2-pyrrolidinone] is lower in “Average hatching rate at 1 ppm (%)” value: 95.2% for the first, 91.8% for the second.
